Earlier results as cited in publication PMC12309854, “Evidencing the role of a conserved polar signaling channel in the activation mechanism of the μ-opioid receptor” (Computational and Structural Biotechnology Journal, 2025).

Target: MOP
Parameters: method as in PMID 31527522
Conditions: value given in the method for the Cheng-Prusoff calculation, source not stated; protocol ref 58; read-out: Kd of the radioligand
Protocol: Binding assays were carried out following a previously published protocol, at 25 °C for a duration of 60 min using a 50 mM Tris–HCl buffer (pH 7.4) in glass tubes. […] Non-specific binding was evaluated u ...

**Q.** Which Kd does the source give for DAMGO [[^3H]DAMGO] here?
**A.** The Kd was 0.5 nM.
